# Values joined by “and” are separate entries in the source; they are usually repeats but may differ in a detail not shown here. Equal values may be shown once.
# Assays:
# Type in all cases: in vivo
# [1] = tested on: Echinochloa species (ECHSS); assay: Herbicidal mixtures for weed control in transplanted paddy rice (in-water application, visual % injury after 3 weeks); conditions: ECHCG
# Method: (§1) Weed seeds or nutlets of the desired test plant species were planted in puddled soil (mud) prepared by mixing a non-sterilized mineral soil (28 percent silt, 18 percent clay, and 54 percent sand, with a pH of about 7.3 to 7.8 and an organic matter content of about 1.0 percent) and water at a ratio of 100 kilograms (kg) of soil to 19 L of water. The prepared mud was dispensed in 250 mL aliquots into 480 mL non-perforated plastic pots with a surface area of 91.6 square centimeters leaving a headspace of 3 centimeters in each pot. Rice seeds were planted in Sun Gro MetroMix® 306 planting mixture, which typically has a pH of 6.0 to 6.8 and an organic matter content of about 30 percent, in plastic plug trays. Seedlings at the second or third leaf stage of growth were transplanted into 650 mL of mud contained in 960 mL non-perforated plastic pots with a surface area of 91.6 cm^2 4 days prior to herbicide application. The paddy was created by filling the 3 centimeter headspace of the pots with water. When required to ensure good germination and healthy plants, a fungicide treatment and/or other chemical or physical treatment was applied. The plants were grown for 4-14 days in a greenhouse with an approximate 14 hr photoperiod which was maintained at about 29° C. during the day and 26° C. during the night. Nutrients were added as Osmocote (17:6:10, N:P:K+minor nutrients) at 2 g per cup. Water was added on a regular basis to maintain the paddy flood, and supplemental lighting was provided with overhead metal halide 1000-Watt lamps as necessary. The plants were employed for testing when they reached the second or third true leaf stage.
# (§2) Treatments consisted of esters or salts of compound A, compound C, or compound D and various herbicidal components alone and in combination. For technical grade compounds, a weighed amount, determined by the highest rate to be tested, was placed in an individual 120 mL glass vial and was dissolved in 20 mL of acetone to obtain concentrated stock solutions. […] The concentrated stock solutions obtained were diluted with 20 mL of an aqueous mixture containing 2.5% Agri-dex crop oil concentrate (v/v). For formulated compounds, a measured amount, determined by the highest rate to be tested, was placed in an individual 120 mL glass vial and was dissolved in 20 mL of 2.5% (v/v) Agri-dex crop oil concentrate to obtain concentrated stock solutions. The concentrated stock solutions obtained were diluted with 20 mL of acetone. Applications were made by injecting an appropriate amount of the stock solution into the aqueous layer of the paddy. Control plants were treated in the same manner with the solvent blank. All treated plant material received the same concentration of acetone and crop oil concentrate.
# (§3) Forms of compounds A, C, and D were applied on an acid equivalent basis. Other herbicidal components were applied on an active ingredient basis and included acetolactate synthase (ALS)-inhibiting herbicides penoxsulam (triazolopyrimidine chemical class) applied as Grasp SC, […] (sulfonylurea chemical class) applied as Sirius G, and bensulfuron-methyl (sulfonylurea chemical class) applied as Londax; acetyl CoA carboxylase (ACCase) inhibiting herbicides cyhalofop-butyl applied as Clincher G and fenoxaprop-p-ethyl applied as Ricestar HT; auxinic herbicide quinclorac applied as Facet 75 DF; phytoene desaturase inhibiting herbicide norflurazon; and p-hydroxyphenylpyruvate dioxygenase (HPPD) inhibiting herbicide sulcotrione applied as Mikado.
# (§4) The treated plants and control plants were placed in a greenhouse as described above and water was added as needed to maintain a paddy flood. After 3 weeks the condition of the test plants as compared with that of the untreated plants was determined visually and scored on a scale of 0 to 100 percent where 0 corresponds to no injury and 100 corresponds to complete kill.
# Cyperus species (CYPSS) = assay: Herbicidal mixtures for weed control in transplanted paddy rice (in-water application, visual % injury)
# Method: as §1, §2, §3, §4
# [2] = tested on: Eleocharis kuroguwai OHWI (ELOKU); assay: as above
# Method: as §1, §2, §3, §4
# [3] = tested on: Leptochloa chinensis (L.) NEES (LEFCH); assay: as above
# Method: as §1, §2, §3, §4
# [4] = tested on: Scirpus maritimus L. (SCPMA); assay: as above
# Method: as §1, §2, §3, §4
# [5] = tested on: Sphenoclea zeylanica GAERTN. (SPDZE); assay: as above
# Method: as §1, §2, §3, §4
# [6] = tested on: Fimbristylis miliacea (L.) VAHL (FIMMI); assay: as above
# Method: as §1, with “When required to ensure good germination and healthy plants, a fungicide treatment and/or other chemical or physical treatment was applied.” left out
# as §2, §3, §4
# [7] = tested on: Ipomoea hederacea (L.) JACQ. (IPOHE); assay: Postemergence herbicidal mixtures for weed control in direct seeded rice (greenhouse, visual % injury after 3 weeks)
# [8] = tested on: Polygonum pensylvanicum L. (POLPY); assay: Postemergence herbicidal mixtures for weed control in direct seeded rice (greenhouse, visual % injury)
# [9] = tested on: Cyperus esculentus L. (CYPES); assay: as above
# Cyperus iria L. (CYPIR) = assay: as above
# Scirpus species (SCPSS) = assay: Herbicidal mixtures for weed control in transplanted paddy rice (in-water application, visual % injury); conditions: SCPJU; 90 g/ha alone
# Method: as §1, with “When required to ensure good germination and healthy plants, a fungicide treatment and/or other chemical or physical treatment was applied.” left out
# as §2, §3, §4
# [10] = tested on: blackgrass (Alopecurus myosuroides L; ALOMY); assay: Postemergence herbicidal activity of mixtures in cereal crops (greenhouse, visual injury 0-100 percent after 20-22 days); conditions: 15 g/ha, Table 1
# Outline: (§5)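 Plants at second-third true leaf stage sprayed postemergence at 187 L/ha with compound and second cereal herbicide alone and combined; solvent blank controls. Visual injury scored 0-100% versus controls after 20-22 days; expected mixture effects by Colby's equation.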
# [11] = tested on: annual ryegrass (Lolium multiflorum L; LOLMG); assay: Postemergence herbicidal activity of mixtures in cereal crops (greenhouse, visual injury); conditions: 15 g/ha, Table 1
# Outline: as §5
# [12] = tested on: wild oats (Avena fatua L; AVEFA); assay: as above; conditions: 15 g/ha, Table 1
# Outline: as §5
# [13] = tested on: windgrass (Apera spica-venti L; APESV); assay: as above; conditions: Apera spica-venti, post-emergence, 15 g/ha, Table 1; read-out: APESV Ob
# Outline: as §5
# [14] = tested on: chickweed (Stellaria media L; STEME); assay: as above; conditions: Stellaria media, post-emergence, 15 g/ha; read-out: STEME Ob
# Outline: (§6)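 Plants grown in greenhouse (~14 h photoperiod, ~18 °C day/17 °C night) to 2nd–3rd true leaf, then sprayed with Compound A or B (methyl ester, TEA or K salt) and a second cereal herbicide alone or combined at 187 L/ha; solvent blank controls. Visual injury (0–100%) scored after 20–22 days; Colby expected values calculated.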
# [15] = tested on: green foxtail (Setaria viridis L; SETVI); assay: as above; conditions: 15 g/ha, Table 1
# Outline: as §6
# [16] = tested on: kochia (Kochia scoparia L; KCHSC); assay: as above
# Outline: as §6
# [17] = tested on: lamb's-quarters (Chenopodium album L; CHEAL); assay: as above; conditions: 15 g/ha
# Outline: as §6
# [18] = tested on: wild mustard (Sinapis arvensis L; SINAR); assay: as above
# Outline: as §6
# [19] = tested on: bird's-eye speedwell (Veronica persica L; VERPE); assay: as above
# Outline: (§7)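 Weeds grown in greenhouse (~14 h photoperiod, ~18/17 °C day/night) to second–third true leaf stage, sprayed postemergence with compound and second cereal herbicide alone or combined; solvent-blank controls. Injury scored visually after 20-22 days, 0–100% (complete kill); expected mixture activity = A+B−(A×B/100).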
# [20] = tested on: scented mayweed (Matricaria chamomila L; MATCH); assay: as above
# Outline: as §7
# [21] = tested on: wild pansy (Viola tricolor L; VIOTR); assay: as above
# Outline: as §7
# [22] = tested on: Russian thistle (Salsola iberica L; SASKR); assay: as above
# Outline: as §6
# [23] = tested on: Leptochloa chinensis (L.) NEES (LEFCH); assay: Postemergence herbicidal mixtures for weed control in direct seeded rice (greenhouse, visual % injury); conditions: LEFCH; 70 g/ha alone
# [24] = tested on: Digitaria sanguinalis (L.) SCOP. (DIGSA); assay: as above
# [25] = tested on: ivy-leaved speedwell (Veronica hederifolia L; VERHE); assay: Postemergence herbicidal activity of mixtures in cereal crops (greenhouse, visual injury); conditions: 12.5 g/ha
# Outline: as §6
compound,measurement,setting,value
CCN(CC)CC.COc1c(Cl)ccc(-c2cc(N)c(Cl)c(C(=O)O)n2)c1Cl [Compound C TEA],% Injury Ob,[1]; 35 g/ha alone,0%
same,% Injury Ob,[1]; 70 g/ha alone,25%
same,% Injury Ob,"Cyperus species (CYPSS); CYPES, 35 g/ha alone",0%
same,% Injury Ob,"Cyperus species (CYPSS); CYPES, 70 g/ha alone",40%
same,% Injury Ob,"Cyperus species (CYPSS); CYPIR, 35 g/ha alone",20%
same,% Injury Ob,"Cyperus species (CYPSS); CYPIR, 70 g/ha alone",60%
same,% Injury Ob,[2]; 35 g/ha alone,0%
same,% Injury Obs,[2]; 35 g/ha alone,0%
same,% Injury Ob,[2]; 70 g/ha alone,50%
same,% Injury Obs,[2]; 70 g/ha alone,50%
same,% Injury Ob,[3]; 35 g/ha alone,50%
same,% Injury Ob,[3]; 70 g/ha alone,95%
same,% Injury Ob,[4]; 35 g/ha alone,0%
same,% Injury Ob,[4]; 70 g/ha alone,0%
same,% Injury Ob,[5]; 35 g/ha alone,50%
same,% Injury Ob,[5]; 70 g/ha alone,80%
same,% Injury Ob,[6]; 35 g/ha alone,0%
same,% Injury Ob,[6]; 70 g/ha alone,0%
CCCCOC(=O)[C@@H](C)Oc1ccc(Oc2ccc(C#N)cc2F)cc1 [Cyhalofop-butyl],% Injury IPOHE Ob,[7]; alone 140 g/ha,0%
same,% Injury IPOHE Ob,[7]; alone 280 g/ha,0%
same,% Injury POLPY Ob,[8]; alone 100 g/ha,0%
same,% Injury CYPES Ob,[9]; alone 100 g/ha,0%
same,% Injury CYPES Ob,[9]; alone 200 g/ha,0%
same,% Injury CYPIR Ob,Cyperus iria L. (CYPIR); alone 140 g/ha,0%
same,% Injury CYPIR Ob,Cyperus iria L. (CYPIR); alone 280 g/ha,0%
same,% Injury Ob,[1]; 90 g/ha alone,50%
same,% Injury Ob,[1]; 180 g/ha alone,75% and 95%
same,% Injury Ob,"Cyperus species (CYPSS); CYPES, 90 g/ha alone",0%
same,% Injury Ob,"Cyperus species (CYPSS); CYPIR, 90 g/ha alone",0%
same,% Injury Ob,[3]; 90 g/ha alone,50%
same,% Injury Ob,[4]; 90 g/ha alone,0%
same,% Injury Ob,[5]; 90 g/ha alone,0%
same,% Injury Ob,[6]; 90 g/ha alone,0%
same,% Injury Ob,Scirpus species (SCPSS),0%
"O=C(Nc1ccc(F)cc1F)c1cccnc1Oc1cccc(C(F)(F)F)c1 [Diflufenican, N-(2,4-difluorophenyl)-2-[3-(trifluoromethyl)phenoxy]-3-pyridinecarboxamide, reference compound]",ALOMY Ob,[10],0%
same,LOLMG Ob,[11],0%
same,AVEFA Ob,[12],0%
same,pest or weed control at 15 g/ha,[13],0%
same,pest or weed control at 15 g/ha,[14],3%
same,SETVI Ob,[15],0%
same,KCHSC Ob,[16]; 12.5 g/ha alone,12%
same,CHEAL Ob,[17],0%
same,SINAR Ob,[18]; 15 g/ha,0%
same,pest or weed control at 12.5 g/ha,"[19]; Veronica persica, post-emergence, 12.5 g/ha alone, read-out: VERPE Ob",7%
same,pest or weed control at 15 g/ha,"[19]; Veronica persica, post-emergence, 15 g/ha, read-out: VERPE Ob",38%
same,pest or weed control at 12.5 g/ha,"[20]; Matricaria, post-emergence, 12.5 g/ha alone, read-out: MATCH Ob",7%
same,pest or weed control at 15 g/ha,"[20]; Matricaria, post-emergence, 15 g/ha, read-out: MATCH Ob",5%
same,pest or weed control at 12.5 g/ha,"[21]; Viola tricolor, post-emergence, 12.5 g/ha alone, read-out: VIOTR Ob",35%
same,pest or weed control at 15 g/ha,"[21]; Viola tricolor, post-emergence, 15 g/ha, read-out: VIOTR Ob",15%
O=C(O)CNCP(=O)(O)O [Glyphosate],SASKR Ob,[22]; 52.5 g/ha alone,0%
same,KCHSC Ob,[16]; 52.5 g/ha alone,0%
same,pest or weed control at 52.5 g/ha,"[21]; Viola tricolor, post-emergence, read-out: VIOTR Ob",52%
same,% Injury Ob,"[8]; POLPY, 70 g/ha alone",0%
same,% Injury Ob,[23],20%
same,% Injury Ob,[24]; 70 g/ha alone,0%
O=C(Nc1ccc(F)cc1)c1cccc(Oc2cccc(C(F)(F)F)c2)n1 [Picolinafen],SASKR Ob,[22]; 15 g/ha alone,60%
same,VERHE Ob,[25],5%
same,KCHSC Ob,[16]; 12.5 g/ha,5%
same,SINAR Ob,[18]; 12.5 g/ha,5%
same,VERPE Ob,[19]; 12.5 g/ha,0%
same,VERPE Ob,[19]; 15 g/ha alone,43%
same,MATCH Ob,[20]; 15 g/ha alone,10%
same,VIOTR Ob,[21]; 12.5 g/ha,0%
same,VIOTR Ob,[21]; 15 g/ha alone,78%
O=c1c(Cl)c[nH]c(Cl)c1Cl [Pyriclor],% Injury Ob,[24]; 140 g/ha alone,80%
